{"source": "patent US20150231109A1", "about": "“COMBINATIONS (CATECHINS AND METHOTREXATE) FOR USE IN THE TREATMENT OF MELANOMAS” (UNIVERSIDAD DE MURCIA, priority 2012, published 2015)", "assay": "Toxicology in non-tumor inoculated C57BL/6 mice", "format": "in vivo, mouse", "method": "FIGS. 4A-N. MTX and TMECG combination therapy is effective in vivo. A, A375 melanoma cells were included in a human reconstructed skin model and were treated with MTX (1 μM) and/or TMECG (10 μM) for 14 days. B, B16/F10 melanoma cells were injected subcutaneously into C57/B16 mice. Images show tumor size 17 days post-injection in control and treated mice. […] C, Luciferase imaging of control and MTX/TMECG-treated mice 12 days post-tumor cell injection. Beetle luciferin (120 mg/kg of mouse) was injected intraperitoneally. The values (means±s.d.) are representative of three independent experiments. *P=0.007; **P=0.002. D, Bioluminescent imaging of livers at 14 days post-intrasplenic injection of B16-F10-luc-G5 cells from untreated and MTX/TMECG-treated mice are shown. E, Quantification of macrometastases (0-10, 10-25 or >25) after treatment with vehicle (control), MTX (1 mg/kg/day), and/or TMECG (50 mg/kg/day). F, Photomicrograph of H&E-stained, 4 μm formalin-fixed, paraffin-embedded liver sections from control (DMSO) and MTX/TMECG-treated mice (1 and 50 mg/kg/day, respectively) (5× magnification). G, MTX activation of MITF and tyrosinase activates the melanoma-specific antifolate activity of TMECG, leading to depletion of cellular dTTP and apoptosis. H, Sections stained with hematoxylin and eosin show the effect of MTX/TMECG on B16/F10 primary splenic tumors. Xenograft tumors treated with DMSO (vehicle) or MTX/TMECG (1 mg/kg/day and 50 mg/kg/day, respectively) over 14-days. […] Representative images taken from two independent experiments (n=5 for each experiment). Scale bar=200 μm and is applicable to both panels. I, B16/F10 melanoma cells, expressing a luciferase reporter, were injected subcutaneously to mice. Mice were divided in two groups (n=7) and treated with vehicle (DMSO) or MTX/TMECG (1 mg/kg/day and 10 mg/kg/day, respectively) over 21-days. Then, tumors were pooled and dissociated. B16/F10 cells extracted from tumors were examined for their sensitivity to the MTX/TMECG combination (1 μM and 10 μM, respectively) using quantification of the luminescence signal (left panel). J, The histogram represents the number of B16/F10-luc2 cells remaining after 3 days of MTX/TMECG treatment with respect to vehicle treated controls (100%). […] K, The morphology of tumor dissociated B16/F10-luc2 cells before and after of MTX/TMECG treatment. Scale bar refers to all panels. L, Histograms represent the number of copies of TYR mRNA for every 1×10^3 copies of β-actin±SD of three independent experiments. […]\nTo explore the toxicity of TMECG and MTX, these agents (at indicated concentrations) were administrated intradermally to the back of non-tumor inoculated female C57BL/6 mice (n=10), and body weight monitored every other day. […]", "data": [{"compound": "CN(Cc1cnc2nc(N)nc(N)c2n1)c1ccc(C(=O)N[C@@H](CCC(=O)O)C(=O)O)cc1", "note": "[MTX, methotrexate]", "values": [{"measurement": "mouse body weight", "setting": "MTX 10 mg/kg/day", "result": "induced some weight loss"}, {"measurement": "mouse body weight", "setting": "MTX alone 1 mg/Kg/day", "result": "no effect"}]}]}
